Legend:
[1] = test system: cotton aphid (Aphis gossypii); assay: Aphis gossypii test (APHIGO), leaf dip; assay type: in vivo; settings: cotton leaves dipped
Description: (§1) After the desired period of time, the kill in % is determined.

[2] = test system: green peach aphid (Myzus persicae); assay: Myzus persicae test (MYZUPE T), leaf dip; assay type: in vivo; settings: 20 ppm; cabbage leaves dipped; comparison with prior art
Description: as §1

[3] = test system: adult fleas (Ctenocephalides felis); assay: Ctenocephalides felis; oral (CTECFE); assay type: in vivo; settings: 100 ppm in citrated cattle blood
Description: Part of the concentrate is diluted with citrated cattle blood, and the desired concentration is prepared.
20 unfed adult fleas (Ctenocephalides felis) are placed into a chamber whose top and bottom ends are closed with gauze. A metal cylinder whose bottom end is closed with parafilm is placed onto the chamber. The cylinder contains the blood/active compound preparation, which can be taken up by the fleas through the parafilm membrane. The blood is warmed to 37° C., but the flea chamber is at room temperature.
as §1

[4] = test system: Meloidogyne incognita; assay: Meloidogyne test (MELGIN spray treatment); assay type: in vivo; settings: 20 ppm; gall formation, 100% = no galls; comparison with prior art
Description: Containers are filled with sand, active compound solution, Meloidogyne incognita egg/larvae suspension and lettuce seeds. The lettuce seeds germinate and the plants develop. On the roots, galls are formed.
After the desired period of time, the nematicidal activity is determined by the formation of galls in %. 100% means that no galls were found; 0% means that the number of galls on the treated plants corresponds to that of the untreated controls.

[5] = test system: green peach aphid (Myzus persicae); assay: Myzus persicae test, hydroponic treatment (MYZUPE sys.); assay type: in vivo; settings: pea plant in treated water
Description: The preparation of active compound is mixed with water. The stated concentration refers to the amount of active compound per volume unit of water (mg/l=ppm). The treated water is filled into containers housing a pea plant (Pisum sativum) which is then infected with the green peach aphid (Myzus persicae).
as §1

[6] = test system: Boophilus microplus; assay: Boophilus microplus test (BOOPMI injection); assay type: in vivo; settings: 20 ppm (so in the source), 100% = no tick has laid fertile eggs, comparison with prior art
Description: The solution of active compound is injected into the abdomen (Boophilus microplus), and the animals are transferred into dishes and kept in a temperature-controlled room.
100% means that no tick has laid any fertile eggs.

[7] = test system: green peach aphid (Myzus persicae); assay: Myzus test (MYZUPE spray treatment); assay type: in vivo
Text: In this test, for example, the following compounds of the Preparation Examples show good activity: see table

[8] = test system: green peach aphid (Myzus persicae); assay: Myzus test; oral (MYZUPE O); assay type: in vivo
[9] = test system: Lucilia cuprina larvae; assay: Lucilia cuprina test (LUCICU); assay type: in vivo; settings: treated horse meat
Description: as §1

[10] = test system: larvae of the mustard beetle (Phaedon cochleariae); assay: Phaedon test (PHAECO spray treatment); settings: 500 g/ha; Chinese cabbage leaf disks sprayed
[11] = 4 ppm, comparison with prior art
[12] = 0.8 ppm, comparison with prior art
[13] = 500 g/ha, Chinese cabbage leaf disks sprayed

## O=C1C=C(N(CCF)Cc2ccc(Cl)nc2)CO1 [Example 4, 4-[[(6-Chloropyridin-3-yl)methyl](2-fluoroethyl)amino]furan-2(5H)-one]
[1]; [11]
  Kill rate in % after 6 days: 99%
[2]
  Kill rate in % after 6 days: 80%
[3]; comparison with prior art
  Kill rate in % after 1 day: 30%
[4]
  Kill rate in % after 14 days: 70%
[5]; 0.16 ppm, comparison with prior art
  Kill rate in % after 6 days: 55%
[5]; [12]
  Kill rate in % after 6 days: 100%
[6]
  Kill rate in % after 7 days: 100%

## O=C1C=C(N(CC=C(Cl)Cl)Cc2ccc(Cl)nc2)CO1 [Example 3, 4-[[(6-Chloropyridin-3-yl)methyl](3,3-dichloroprop-2-en-1-yl)amino]furan-2(5H)-one]
[7]; [13]
  Kill rate in % after 5 days: 100%

## O=C1OCC(N(Cc2ccc(Cl)nc2)CC(F)F)=C1Br [Example 7, 3-Bromo-4-[[(6-chloropyridin-3-yl)methyl](2,2-difluoroethyl)amino]furan-2(5H)-one]
[7]; [13]
  Kill rate in % after 5 days: 100%

## O=C1C=C(N(CCCF)Cc2ccc(Cl)nc2)CO1 [Example 2, 4-[[(6-Chloropyridin-3-yl)methyl](3-fluoro-n-propyl)amino]furan-2(5H)-one]
[8]; 20 ppm, oral uptake by sucking
  Kill rate in % after 5 days: 100%
[7]; [13]
  Kill rate in % after 5 days: 100%

## CC1OC(=O)C=C1N(Cc1ccc(Cl)nc1)CC(F)F (centres unmarked) [Example 6, 4-[[(6-Chloropyridin-3-yl)methyl](2,2-difluoroethyl)amino]-5-methylfuran-2(5H)-one]
[7]; [13]
  Kill rate in % after 5 days: 100%

## O=C1OCC(N(Cc2ccc(Cl)nc2)CC(F)F)=C1Cl [Example 8, 3-Chloro-4-[[(6-chloropyridin-3-yl)methyl](2,2-difluoroethyl)amino]furan-2(5H)-one]
[1]; 20 ppm
  Kill rate in % after 6 days: 100%
[5]; 4 ppm
  Kill rate in % after 6 days: 98%
[9]; 100 ppm
  Kill rate in % after 2 days: 100%
[7]; [13]
  Kill rate in % after 5 days: 100%

## (E/Z)-4-[[(6-Chloropyridin-3-yl)methyl](2-fluorovinyl)amino]-5-methylfuran-2(5H)-one [Example 5]
[7]; [13]
  Kill rate in % after 5 days: 100%

## O=C1C=C(N(Cc2ccc(Cl)nc2)CC(F)Cl)CO1 (centres unmarked) [Example 17, 4-[[(6-chloropyridin-3-yl)methyl](2-chloro-2-fluoroethyl)amino]furan-2(5H)-one]
[10]
  Kill rate in % after 7 days: 100%
[7]; [13]
  Kill rate in % after 5 days: 100%

## O=C1C=C(N(Cc2ccc(Cl)nc2)CC(F)F)CO1 [Example 1, 4-[[(6-Chloropyridin-3-yl)methyl](2,2-difluoroethyl)amino]furan-2(5H)-one]
[1]; [12]
  Kill rate in % after 6 days: 60%
[1]; [11]
  Kill rate in % after 6 days: 98%
[2]
  Kill rate in % after 6 days: 95%
[8]; 0.032 ppm, oral, comparison with prior art
  Kill rate in % after 5 days: 100%
[5]; [12]
  Kill rate in % after 6 days: 100%
[9]; [11]
  Kill rate in % after 2 days: 100%
[7]; 4 g/ha, leaf disks sprayed, comparison with prior art
  Kill rate in % after 5 days: 80%

## O=C1C=C(N(Cc2ccc(F)nc2)CC(F)F)CO1 [Example 15]
[1]; 100 ppm
  Kill rate in % after 6 days: 100%
[3]
  Kill rate in % after 2 days: 90%
[5]; 4 ppm
  Kill rate in % after 6 days: 100%
[10]
  Kill rate in % after 7 days: 100%
[9]; 100 ppm
  Kill rate in % after 2 days: 90%
[7]; [13]
  Kill rate in % after 5 days: 100%
